Where two headings read alike, the source gives them in different places.

The test system of this test is HIV-1 isolates from patient plasma samples (recombinant virus with patient PR-RT segment). The protocol: Phenotypic drug susceptibility is measured as the concentration of drug required to inhibit virus replication by 50% (IC50). As used herein, a “fold change” or “FC” is the ratio of a viral variant IC50 divided by the IC50 of a reference HIV.
The clinical cutoff has been identified as a 3.5-fold change (“FC”) for the PHENOSENSE™ phenotypic HIV assay for FTC.
A set of reverse transcriptase mutations for FTC was generated utilizing the HIPAA-compliant database of over 48,000 linked phenotype and genotype results for patient's samples maintained by ViroLogic, Inc. (South San Francisco, Calif.). Phenotypes and genotypes were determined in the ViroLogic clinical laboratory. […] In this subset excluding the wild-type samples, a total of 13,576 samples had IC50 fold change (FC) data available for FTC.
The drug susceptibility phenotypes of the HIV-1 isolates from patient plasma samples was determined by the PHENOSENSE™ phenotype HIV assay. This assay was performed by amplifying the PR-RT segment of the pol gene from patient plasma and inserting it into a genomic HIV-1 vector. The vector contained a luciferase reporter gene to monitor recombinant virus infection in cell culture. Results were expressed as the FC in the IC50 for the patient-derived virus compared to that for a reference control virus, NL4-3. Drug dilutions were arranged to maximize curve-fitting accuracy for the range of wildtype virus susceptibilities over clinically relevant ranges of increased and decreased susceptibilities. Microtiter plates were incubated in customized incubators in which the temperature, CO2 level, and humidity were controlled to minimize variation in cell growth and medium composition changes throughout the plate.
The five rules were tested separately and with the condition that none of the other rules were verified as true, except for rule 2. […] In this exercise, because of large number of samples in each category, mixtures (if present at accessory positions) were considered as mutant. In rule 2, because of the low number of samples with T69 insertion without NAMs, the condition was defined to select samples with T69 insertion and with no mutation Q151M, K65R, M184I, M184V or M184T.

Regarding `Nc1nc(=O)n([C@@H]2CS[C@H](CO)O2)cc1F` [FTC, emtricitabine], the “samples classified as phenotypically resistant” value (dataset of 13,576 patient samples (wild-type excluded) with FTC FC data, 8,589 samples resistant) was determined as 63.2%. In addition, the “PR % (samples phenotypically resistant to FTC)” value runs as follows: (rule 1: samples with RT mutation Q151M only, PR = FC at or above clinical cutoff 3.5 vs NL4-3) 53.8%; (rule 2: samples with T69 insertion (possible NAMs), no Q151M, K65R, M184I/V/T, cutoff FC 3.5) 89.4%; (rule 3: samples with RT mutation K65R only, cutoff FC 3.5) 95.2%; (rule 4: samples with M184I, V or T only, cutoff FC 3.5) 100%; (rule 5: samples with 4 or more NAMs (M41L, E44A/D, D67N, K70R, V118I, L210W, T215F/Y, K219E/H/N/Q/R) only, cutoff FC 3.5) 87.1%; (totals: all 2794 samples meeting only one of the five rules, cutoff FC 3.5) 94.9%.

Source of the values: patent US20080293038A1, “Method for Determining Resistance of Hiv to Nucleoside Reverse Transcriptase Inhibitor Treatment” (priority 2005, published 2008).
